Experimental data from US20260200897A1, “4-((5-(3-(4-(PYRIDIN-2-YL)CYCLOPENTYL)-1H-PYRAZOL-3-YL)AMINO)-BENZENESULFONAMIDE DERIVATIVES AND SIMILAR COMPOUNDS AS CDK INHIBITORS FOR THE TREATMENT OF CANCER” (BeOne Medicines I GmbH, priority 2023, published 2026).

Tests used:
CDK2/Cyclin E1 = CDK2/Cyclin E1 (Homo sapiens, UniProt P24941); test: CDK2/Cyclin E1 TR-FRET biochemical assay, 1 mM ATP; conditions: 0.15 μM Rb (Ser780)-biotin substrate, 90 min reaction, Table 2
Protocol: (§1) Compounds disclosed herein were tested for inhibition of CDK2/Cyclin E1 or CDK1/Cyclin B kinase in an assay based on the time-resolved fluorescence-resonance energy transfer (TR-FRET) methodology. The assay was carried out in 384-well low volume black plates in a reaction mixture containing CDK2/Cyclin E1 or CDK1/Cyclin B1, 1 mM ATP for CDK2/Cyclin E1 and CDK1/Cyclin B1, 0.15 μM Rb (Ser780)-biotin substrate and 0-10 μM compound in buffer containing 50 mM HEPES pH7.0, 0.02% NaN3, 0.01% BSA, 0.1 mM Orthovanadate, 50 mM MgCl2, 1 mM DTT and 0.005% Tween-20. The kinase was incubated with compound for 60 minutes at room temperature and the reaction was initiated by the addition of ATP and Rb (Ser780)-biotin substrate. After reaction at room temperature for 90 minutes, an equal volume of stop/detection solution was added according to the manufacture's instruction (Cisbio Bioassays). The stop/detection solution contained Streptavidin-XL665 and Anti-pRb (Ser780) mAb-Eu Cryptate in Detection buffer (Cisbio Bioassays). Plates were incubated at room temperature for 60 minutes, and the TR-FRET signals (ex337 nm, em665 nm/620 nm) were recorded on a PHERAstar FSX plate reader (BMG Labtech). The inhibition percentage of CDK2/Cyclin E1 or CDK1/Cyclin B1 kinase activity in presence of increasing concentrations of compounds was calculated based on the ratio of fluorescence at 665 nm to that at 620 nm. The IC50 for each compound was derived from fitting the data to the four-parameter logistic equation by Dotmatics.

CDK1/Cyclin B1 = CDK1/Cyclin B1 (Homo sapiens, UniProt P06493); test: CDK1/Cyclin B1 TR-FRET biochemical assay, 1 mM ATP; conditions: 0.15 μM Rb (Ser780)-biotin substrate, 90 min reaction, Table 2
Protocol: as §1

CDK1/Cyclin B1, sequence (P06493 whole entry): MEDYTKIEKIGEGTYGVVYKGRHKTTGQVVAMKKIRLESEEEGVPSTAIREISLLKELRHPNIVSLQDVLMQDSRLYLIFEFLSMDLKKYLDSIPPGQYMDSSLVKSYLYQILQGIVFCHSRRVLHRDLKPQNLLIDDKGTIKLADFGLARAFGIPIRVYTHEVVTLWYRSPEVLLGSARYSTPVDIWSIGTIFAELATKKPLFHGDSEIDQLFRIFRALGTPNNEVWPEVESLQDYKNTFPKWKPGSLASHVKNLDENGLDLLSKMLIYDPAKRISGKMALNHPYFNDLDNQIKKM
CDK1/Cyclin B1, sequence (P14635 whole entry partner): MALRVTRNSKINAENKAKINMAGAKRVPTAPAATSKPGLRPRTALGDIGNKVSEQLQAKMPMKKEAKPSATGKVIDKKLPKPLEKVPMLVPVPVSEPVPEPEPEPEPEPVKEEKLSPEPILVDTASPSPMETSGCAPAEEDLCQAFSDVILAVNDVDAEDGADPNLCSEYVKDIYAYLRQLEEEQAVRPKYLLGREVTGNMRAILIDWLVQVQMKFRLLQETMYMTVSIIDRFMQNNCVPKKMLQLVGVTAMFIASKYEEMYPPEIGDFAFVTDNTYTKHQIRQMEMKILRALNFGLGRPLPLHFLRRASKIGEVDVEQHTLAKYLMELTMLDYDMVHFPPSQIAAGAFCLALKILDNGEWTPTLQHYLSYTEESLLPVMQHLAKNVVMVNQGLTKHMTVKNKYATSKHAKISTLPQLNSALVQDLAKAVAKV

Row | IC50 (CDK2/Cyclin E1) [nM] | IC50 (CDK1/Cyclin B1) [nM] | Structure (SMILES)
1 | > 10000 | > 10000 | CC(C)(C)c1ccnnc1O[C@H]1CC[C@H](c2cc(Nc3ccc4c(c3F)CNS4(=O)=O)n[nH]2)C1 (relative stereo) [Example 36, trans-5-((5-(3-((4-(tert-butyl)pyridazin-3-yl)oxy)cyclopentyl)-1H-pyrazol-3-yl)amino)-4-fluoro-2,3-dihydrobenzo[d]isothiazole 1,1-dioxide]
2 | 0.5 | 11 | CC(C)(C)c1ccnnc1O[C@@H]1CC[C@H](c2cc(Nc3ccc4c(c3F)CNS4(=O)=O)n[nH]2)C1 (relative stereo) [Example 37, cis-5-((5-(3-((4-(tert-butyl)pyridazin-3-yl)oxy)cyclopentyl)-1H-pyrazol-3-yl)amino)-4-fluoro-2,3-dihydrobenzo[d]isothiazole 1,1-dioxide]
3 | 2370 | > 10000 | CC(C)(C)c1cc(O[C@@H]2CC[C@H](c3cc(Nc4ccc5c(c4F)CNS5(=O)=O)n[nH]3)C2)ncn1 (relative stereo) [Example 38, cis-5-((5-(3-((6-(tert-butyl)pyrimidin-4-yl)oxy)cyclopentyl)-1H-pyrazol-3-yl)amino)-4-fluoro-2,3-dihydrobenzo[d]isothiazole 1,1-dioxide]
4 | 4.3 | 3500 | CC(C)(C)c1csnc1O[C@@H]1CC[C@H](c2cc(Nc3ccc4c(c3F)CNS4(=O)=O)n[nH]2)C1 (relative stereo) [Example 56, cis-5-((5-(3-((4-(tert-butyl)isothiazol-3-yl)oxy)cyclopentyl)-1H-pyrazol-3-yl)amino)-4-fluoro-2,3-dihydrobenzo[d]isothiazole 1,1-dioxide]
5 | 5910 | > 10000 | Cn1ncc(C(C)(C)C)c1O[C@@H]1CC[C@H](c2cc(Nc3ccc4c(c3F)CNS4(=O)=O)n[nH]2)C1 (relative stereo) [Example 72, cis-5-((5-(3-((4-(tert-butyl)-1-methyl-1H-pyrazol-5-yl)oxy)cyclopentyl)-1H-pyrazol-3-yl)amino)-4-fluoro-2,3-dihydrobenzo[d]isothiazole 1,1-dioxide]
6 | 1120 | > 10000 | Cc1[nH]nc(C(C)(C)C)c1O[C@@H]1CC[C@H](c2cc(Nc3ccc4c(c3F)CNS4(=O)=O)n[nH]2)C1 (relative stereo) [Example 80, cis-5-((5-(3-((3-(tert-butyl)-5-methyl-1H-pyrazol-4-yl)oxy)cyclopentyl)-1H-pyrazol-3-yl)amino)-4-fluoro-2,3-dihydrobenzo[d]isothiazole 1,1-dioxide]
7 | > 10000 | > 10000 | CC(C)(C)c1cn([C@@H]2CC[C@H](c3cc(Nc4ccc5c(c4F)CNS5(=O)=O)n[nH]3)C2)cn1 (relative stereo) [Example 88, cis-5-((5-(3-(4-(tert-butyl)-1H-imidazol-1-yl)cyclopentyl)-1H-pyrazol-3-yl)amino)-4-fluoro-2,3-dihydrobenzo[d]isothiazole 1,1-dioxide]
8 | 351 | > 10000 | CC(C)(C)c1cnn([C@@H]2CC[C@H](c3cc(Nc4ccc5c(c4F)CNS5(=O)=O)n[nH]3)C2)c1 (relative stereo) [Example 89, cis-5-((5-(3-(4-(tert-butyl)-1H-pyrazol-1-yl)cyclopentyl)-1H-pyrazol-3-yl)amino)-4-fluoro-2,3-dihydrobenzo[d]isothiazole 1,1-dioxide]
9 | 3310 | > 10000 | CC(C)(C)c1cn([C@@H]2CC[C@H](c3cc(Nc4ccc5c(c4F)CNS5(=O)=O)n[nH]3)C2)nn1 (relative stereo) [Example 90, cis-5-((5-(3-(4-(tert-butyl)-1H-1,2,3-triazol-1-yl)cyclopentyl)-1H-pyrazol-3-yl)amino)-4-fluoro-2,3-dihydrobenzo[d]isothiazole 1,1-dioxide]
10 | 314 | > 10000 | CC(C)(C)c1nnc([C@@H]2CC[C@H](c3cc(Nc4ccc5c(c4F)CNS5(=O)=O)n[nH]3)C2)o1 (relative stereo) [Example 96, cis-5-((5-(3-(5-(tert-butyl)-1,3,4-oxadiazol-2-yl)cyclopentyl)-1H-pyrazol-3-yl)amino)-4-fluoro-2,3-dihydrobenzo[d]isothiazole 1,1-dioxide]
11 | 3180 | > 10000 | CC(C)(C)c1nnc([C@H]2CC[C@H](c3cc(Nc4ccc5c(c4F)CNS5(=O)=O)n[nH]3)C2)o1 (relative stereo) [Example 97, trans-5-((5-(3-(5-(tert-butyl)-1,3,4-oxadiazol-2-yl)cyclopentyl)-1H-pyrazol-3-yl)amino)-4-fluoro-2,3-dihydrobenzo[d]isothiazole 1,1-dioxide]
12 | 2440 | > 10000 | CC(C)(C)c1ccc([C@@H]2CC[C@H](c3cc(Nc4ccc5c(c4F)CNS5(=O)=O)n[nH]3)C2)o1 (relative stereo) [Example 107, cis-5-((5-(3-(5-(tert-butyl)furan-2-yl)cyclopentyl)-1H-pyrazol-3-yl)amino)-4-fluoro-2,3-dihydrobenzo[d]isothiazole 1,1-dioxide]
13 | 8510 | > 10000 | CC(C)(C)c1ccc([C@H]2CC[C@H](c3cc(Nc4ccc5c(c4F)CNS5(=O)=O)n[nH]3)C2)o1 (relative stereo) [Example 108, trans-5-((5-(3-(5-(tert-butyl)furan-2-yl)cyclopentyl)-1H-pyrazol-3-yl)amino)-4-fluoro-2,3-dihydrobenzo[d]isothiazole 1,1-dioxide]
14 | 1.5 | 142 | CC(C)(C)c1ccnc([C@@H]2CC[C@H](c3cc(Nc4ccc5c(c4F)CNS5(=O)=O)n[nH]3)C2)n1 (relative stereo) [Example 127, cis-5-((5-(3-(4-(tert-butyl)pyrimidin-2-yl)cyclopentyl)-1H-pyrazol-3-yl)amino)-4-fluoro-2,3-dihydrobenzo[d]isothiazole 1,1-dioxide]
15 | 54 | 5710 | CC(C)(C)c1ncccc1O[C@@H]1CC[C@H](c2cc(Nc3ccc4c(c3)CS(=O)(=O)N4)n[nH]2)C1 (relative stereo) [Example 139, cis-5-((5-(3-((2-(tert-butyl)pyridin-3-yl)oxy)cyclopentyl)-1H-pyrazol-3-yl)amino)-1,3-dihydrobenzo[c]isothiazole 2,2-dioxide]
16 | 74 | > 10000 | CC(C)(C)c1nnc([C@@H]2CC[C@H](c3cc(Nc4ccc5c(c4F)CS(=O)(=O)N5)n[nH]3)C2)o1 (relative stereo) [Example 146, cis-5-((5-(3-(5-(tert-butyl)-1,3,4-oxadiazol-2-yl)cyclopentyl)-1H-pyrazol-3-yl)amino)-4-fluoro-1,3-dihydrobenzo[c]isothiazole 2,2-dioxide]
17 | 851 | > 10000 | CC(C)(C)c1nnc([C@H]2CC[C@H](c3cc(Nc4ccc5c(c4F)CS(=O)(=O)N5)n[nH]3)C2)o1 (relative stereo) [Example 147, trans-5-((5-(3-(5-(tert-butyl)-1,3,4-oxadiazol-2-yl)cyclopentyl)-1H-pyrazol-3-yl)amino)-4-fluoro-1,3-dihydrobenzo[c]isothiazole 2,2-dioxide]
18 | 6120 | > 10000 | CC(C)(C)c1cnc([C@@H]2CC[C@H](c3cc(Nc4ccc5c(c4F)CS(=O)(=O)N5)n[nH]3)C2)s1 (relative stereo) [Example 149, cis-5-((5-(3-(5-(tert-butyl)thiazol-2-yl)cyclopentyl)-1H-pyrazol-3-yl)amino)-4-fluoro-1,3-dihydrobenzo[c]isothiazole 2,2-dioxide]
19 | 3 | 2000 | CC(C)(C)c1cnc(C2CCC(c3cc(Nc4ccc(S(N)(=O)=O)cc4F)n[nH]3)C2)o1 (single isomer, unassigned) [Example 6a, 4-((5-(3-(5-(tert-butyl)oxazol-2-yl)cyclopentyl)-1H-pyrazol-3-yl)amino)-3-fluorobenzenesulfonamide]
20 | 88 | > 10000 | CC(C)(C)c1cnc(C2CCC(c3cc(Nc4ccc(S(N)(=O)=O)cc4F)n[nH]3)C2)o1 (single isomer, unassigned) [Example 6b, 4-((5-(3-(5-(tert-butyl)oxazol-2-yl)cyclopentyl)-1H-pyrazol-3-yl)amino)-3-fluorobenzenesulfonamide]
21 | 1910 | > 10000 | CC(C)(C)c1cnc(C2CCC(c3cc(Nc4ccc(S(N)(=O)=O)cc4F)n[nH]3)C2)o1 (single isomer, unassigned) [Example 6c, 4-((5-(3-(5-(tert-butyl)oxazol-2-yl)cyclopentyl)-1H-pyrazol-3-yl)amino)-3-fluorobenzenesulfonamide]
22 | 503 | > 10000 | CC(C)(C)c1cnc(C2CCC(c3cc(Nc4ccc(S(N)(=O)=O)cc4F)n[nH]3)C2)o1 (single isomer, unassigned) [Example 6d, 4-((5-(3-(5-(tert-butyl)oxazol-2-yl)cyclopentyl)-1H-pyrazol-3-yl)amino)-3-fluorobenzenesulfonamide]
